Tests used:
Type in all cases: cell-based
[1] = system: Wnt activity (Sp5-Luc reporter, SW480 colon carcinoma cells); test: Wnt activity screening assay, Sp5-Luc reporter gene in SW480 cells; conditions: Homo sapiens; for EC50: overnight incubation
Description: The screening assay for Wnt activity is described as follows. Reporter cell lines can be generated by stably transducing cancer cell lines (e.g., colon cancer) or primary cells (e.g., IEC-6 intestinal cells) with a lentiviral construct that includes a Wnt-responsive promoter driving expression of the firefly luciferase gene.
SW480 colon carcinoma cells were transduced with a lentiviral vector expressing luciferase with a human Sp5 promoter consisting of a sequence of eight TCF/LEF binding sites. SW480 cells stably expressing the Sp5-Luc reporter gene and a hygromycin resistance gene were selected by treatment with 150 μg/mL of hygromycin for 7 days. These stably transduced SW480 cells were expanded in cell culture and used for all further screening activities. Each compound was dissolved in DMSO as a 10 mM stock and used to prepare compound source plates. Serial dilution (1:3, 10-point dose-response curves starting from 10 μM) and compound transfer was performed using the ECHO 550 (Labcyte, Sunnyvale, Calif.) into 384-well white solid bottom assay plates (Greiner Bio-One) with appropriate DMSO backfill for a final DMSO concentration of 0.1%. For Sp5-Luc reporter gene assays, the cells were plated at 4,000 cells/well in 384-well plates with medium containing 1% fetal bovine serum and incubated overnight at 37° C. and 5% CO2. Following incubation, 20 μl of BrightGlo luminescence reagent (Promega) was added to each well of the 384-well assay plates. The plates were placed on an orbital shaker for 2 min and then luminescence was quantified using the Envision (Perkin Elmer) plate reader. Readings were normalized to DMSO only treated cells, and normalized activities were utilized for EC50 calculations using the dose-response log (inhibitor) vs. response-variable slope (four parameters) nonlinear regression feature available in GraphPad Prism 5.0 (or Dotmatics). For EC50 of >10 μM, the percent inhibition at 10 μM is provided.

SW480 colon cancer cells = test: Cell viability assay (CellTiter-Blue); conditions: Homo sapiens, 96 h, four days
Protocol: Representative compounds were screened using the following assay procedure to assess the effect on cell viability as described below.
Each compound was dissolved in DMSO as a 10 mM stock and used to prepare compound source plates. Serial dilution (1:3, 8-point dose-response curves from 10 μM to 0.0045 μM) and compound transfer was performed using the ECHO 550 (Labcyte, Sunnyvale, Calif.) into 96-well clear bottom, black-walled plates (Corning-Costar).
Approximately 2×10^3 SW480 colon cancer cells were seeded into each well and allowed to incubate in the presence or absence of compound for four days at 37° C./5% CO2. Eight replicates of DMSO-treated cells served as controls and cells treated with compound were performed in duplicate.
After incubation, 20 μL of CellTiter-Blue (Promega) was added to each well allowed to incubate for approximately 3 hours. This reagent was a buffered solution which contains resazurin, metabolically active cells were able to reduce rezarurin (blue) into resorufin (pink) which was highly fluorescent. This measured fluorescence was used as a readout for cell viability.
After incubation, the plates were read at Ex 560 nm Em 590 nm (Cytation 3, BioTek). Dose-response curves were generated and EC50 concentration values were calculated using non-linear regression curve fit in the GraphPad Prism (San Diego, Calif.) or Dotmatics' Studies Software (Bishops Stortford, UK). For EC50 of >10 μM, the percent inhibition at 10 μM is provided.

[2] = system: primary human fibroblasts derived from IPF patients (LL29 cells) treated with TGF-β1; test: Inhibition of fibrotic process, αSMA staining in TGF-β1 treated LL29 fibroblasts; conditions: Fibroblast, 96 h, % αSMA positive LL29 cells, TGF-β1 20 ng/mL, 4 days
Description: Representative compounds were screened using primary human fibroblasts (derived from IPF patients) treated with TGF-β1 to determine their ability to inhibit the fibrotic process.
Primary human fibroblasts derived from IPF patients (LL29 cells) [^1Xiaoqiu Liu, et. al., “Fibrotic Lung Fibroblasts Show Blunted Inhibition by cAMP Due to Deficient cAMP Response Element-Binding Protein Phosphorylation”, Journal of Pharmacology and Experimental Therapeutics (2005), 315(2), 678-687; ^2Watts, K. L., et. al., “RhoA signaling modulates cyclin D1 expression in human lung fibroblasts; implications for idiopathic pulmonary fibrosis”, Respiratory Research (2006), 7(1), 88] were obtained from American Type Culture Collection (ATCC) and expanded in F12 medium supplemented with 15% Fetal Bovine Serum and Penicillin/Streptomycin.
Each compound was dissolved in DMSO as a 10 mM stock and used to prepare compound source plates. Serial dilution (1:2, 11-point dose-response curves from 10 μM to 1.87 nM) and compound transfer was performed using the ECHO 550 (Labcyte, Sunnyvale, Calif.) into 384-well clear bottom assay plates (Greiner Bio-One) with appropriate DMSO backfill for a final DMSO concentration of 0.1%. LL29 cells are plated at 1,500 cells/well in 80 μL/well F12 medium supplemented with 1% Fetal Bovine Serum. One hour after addition of the cells, TGF-β1 (Peprotech; 20 ng/mL) was added to the plates to induce fibrosis (ref. 1 and 2 above). Wells treated with TGF-β1 and containing DMSO were used as controls. Cells were incubated at 37° C. and 5% CO2 for 4 days. Following incubation for 4 days, SYTOX green nucleic acid stain (Life Technologies [Thermo Fisher Scientific]) was added to the wells at a final concentration of 1 μM and incubated at room temperature for 30 min. Cells were then fixed using 4% formaldehyde (Electron Microscopy Sciences), washed 3 times with PBS followed by blocking and permeabilization using 3% Bovine Serum Albumin (BSA; Sigma) and 0.3% Triton X-100 (Sigma) in PBS. Cells were then stained with antibody specific to α-smooth muscle actin (αSMA; Abcam) (ref. 1 and 2 above) in 3% Bovine Serum Albumin (BSA; Sigma) and 0.3% Triton X-100 (Sigma) in PBS, and incubated overnight at 4° C. Cells were then washed 3 times with PBS, followed by incubation with Alexa Flor-647 conjugated secondary antibody (Life Technologies [Thermo Fisher Scientific]) and DAPI at room temperature for 1 hour. Cells were then washed 3 times with PBS and plates were sealed for imaging. αSMA staining was imaged by excitation at 630 nm and emission at 665 nm and quantified using the Compartmental Analysis program on the CellInsight CX5 (Thermo Scientific). Dead or apoptotic cells were excluded from analysis based on positive SYTOX green staining. % of total cells positive for αSMA were counted in each well and normalized to the average of 11 wells treated with TGF-β1 on the same plate using Dotmatics' Studies Software. The normalized averages (fold change over untreated) of 3 replicate wells for each compound concentration were used to create dose-responses curves and EC50 values were calculated using non-linear regression curve fit in the Dotmatics' Studies Software. For EC50 of >10 μM, the percent inhibition at 10 μM is provided.

IL-6 (THP-1 cells) = test: IL-6 inhibition in LPS-stimulated THP-1 cells (HTRF); conditions: Homo sapiens; IL-6 in THP-1 cells, LPS 500 ng/mL, 22 hours
Protocol: Human monocyte cell line (THP-1 cells; Catalog # TIB-202, ATCC, Manassas, Va.) were cultured in Roswell Park Memorial Institute (RPMI) 1640 Medium (Catalog #21870-100, Buffalo, N.Y.) with 1% L-glutamine, 1% HEPES, 1% Sodium Pyruvate, 2% Sodium Bicarbonate supplemented with 100 units/mL penicillin, 50 μg/mL streptomycin, 2-mercaptoethanol (0.05 mM) [basal medium] and 10% fetal bovine serum (Catalog #16140089, Life Technologies, Carlsbad, Calif.) at 37° C. and 5% CO2.
THP-1 cells were cultured in basal media with 1% FBS for 24 hours before the start of the assay. Each compound was dissolved in DMSO as a 10 mM stock and used to prepare compound source plates. Serial dilution (1:3, 10-point dose-response curves starting from 10 μM) and compound transfer was performed using the ECHO 550 (Labcyte, Sunnyvale, Calif.) into 384-well white low volume assay plates (Greiner Bio-One) with appropriate DMSO backfill for a final DMSO concentration of 0.1%. THP-1 cells were plated at 5000 cells/well in the 384-well plates and incubated at 37° C. for 2 h. 500 ng/mL of LPS was added after 2 hours and cells were incubated for another 22 hours at 37° C. Plates were spun in a centrifuge for 1 minute at […] and a mixture of anti-IL6 XL665, and anti-IL6 Cryptate diluted in reconstitution buffer (Cisbio Inc.) was added to each well. Following incubation for 3 hrs at room temperature, Homogeneous Time-Resolved Fluorescence (HTRF) was measured using the Envision (Perkin Elmer) at 665 nm and […]. The ratio of fluorescence at 665 nm to 620 nm was used as a readout for IL6 quantification. All samples were processed in duplicate. Readings were normalized to DMSO treated cells and normalized activities were utilized for EC50 calculations using the dose-response log (inhibitor) vs. response-variable slope (four parameters) nonlinear regression feature available in GraphPad Prism 5.0 (or Dotmatics). For EC50 of >10 μM, the percent inhibition at 10 μM is provided.

Structure (SMILES) | inhibition at 10 µM ([1]; at 10 μM, given where EC50 >10 μM, read-out: percent inhibition at 10 μM) | EC50 [1] | EC50 (SW480 colon cancer cells) | EC50 [2] | EC50 (IL-6 (THP-1 cells))
Fc1ccc(-c2ccnc3[nH]c(-c4n[nH]c5cnc(-c6cncc(CN7CCC(F)(F)C7)c6)cc45)cc23)cc1 [Compound 54, 5-(5-((3,3-Difluoropyrrolidin-1-yl)methyl)pyridin-3-yl)-3-(4-(4-fluorophenyl)-1H-pyrrolo[2,3-b]pyridin-2-yl)-1H-pyrazolo[3,4-c]pyridine] | 28.1% | > 10000 nM | 1400 nM | 1110 nM | 2050 nM
CC(C)(C)CC(=O)Nc1cncc(-c2cc3c(-c4cc5c(-c6ccc(F)cc6)ccnc5[nH]4)n[nH]c3cn2)c1 [Compound 44, N-(5-(3-(4-(4-Fluorophenyl)-1H-pyrrolo[2,3-b]pyridin-2-yl)-1H-pyrazolo [3,4-c]pyridin-5-yl)pyridin-3-yl)-3,3-dimethylbutanamide] | – | 144 nM | 1160 nM | 311 nM | 4400 nM
Fc1ccccc1-c1ccnc2[nH]c(-c3n[nH]c4cnc(-c5ccccn5)cc34)cc12 [Compound 84, 3-(4-(2-Fluorophenyl)-1H-pyrrolo[2,3-b]pyridin-2-yl)-5-(pyridin-2-yl)-1H-pyrazolo[3,4-c]pyridine] | – | 279 nM | 411 nM | 561 nM | 6420 nM

From patent US10285982B2, “3-(1H-pyrrolo[2,3-B]pyridin-2-yl)-1H-pyrazolo[3,4-C]pyridines and therapeutic uses thereof” (Samumed, LLC, priority 2015, dated 2019)
